Measured values from patent US10722515B2, “Dual CLK/CDK1 inhibitors for cancer treatment” (SRI INTERNATIONAL, priority 2016, dated 2020).

How the values were obtained:
CLK1(h) = target: T1, CLK1(h) (Homo sapiens, UniProt P49759); assay: radiometric protein kinase assay, CLK1; format: biochemical; conditions: enzyme inhibition, radiometric, ATP 10 μM; read-out: IC50 (nM) CLK1
T1 construct: purchased Eurofins, Dundee, Scotland
Experimental: (§1) Enzymatic biochemical activities were evaluated in radiometric protein kinase assays (Eurofins, Dundee, Scotland). Kinases are incubated with buffer, substrate and [γ-^33P]-ATP (specific activity approx. 500 cpm/pmol, concentration as required). The reaction is initiated by the addition of the MgATP mix. After incubation for 40 minutes at room temperature, the reaction is stopped by the addition of 3% phosphoric acid solution. 10 μL of the reaction is then spotted onto a P30 filtermat and washed three times for 5 minutes in 75 mM phosphoric acid and once in methanol prior to drying and scintillation counting.
(§2) All compounds are prepared to 50× final assay concentration in 100% DMSO. Positive control wells contain all components of the reaction with 2% DMSO. Blank wells contain all components of the reaction, with a reference inhibitor replacing the compound of interest. Each kinase is assigned a standard assay concentration of ATP within 20 μM of its apparent KM. Compounds were screened at 1 μM in duplicate or tested at 10 concentrations at half log dilution starting from 10 μM in singlicate. Dose response curves were fitted with four parameter logistic curve to obtain IC50 values. The average coefficient of variation (CV) of the conducted assay is 4.4%.

CLK2(h) = target: T2, CLK2(h) (Homo sapiens, UniProt P49760); assay: radiometric protein kinase assay, CLK2; format: biochemical; conditions: enzyme inhibition, ATP 10 μM
T2 construct: purchased Eurofins, Dundee, Scotland
Experimental: as §1, §2

ALK(h) = target: T3, ALK(h) (Homo sapiens, UniProt Q9UM73); assay: kinase profile, radiometric assay, ALK; format: biochemical
T3 construct: purchased Eurofins, Dundee, Scotland
Experimental: as §1, §2

EGFR(h) = target: T4, EGFR(h) (Homo sapiens, UniProt P00533); assay: kinase profile, radiometric assay, EGFR; format: biochemical
T4 construct: purchased Eurofins, Dundee, Scotland
Experimental: as §1, §2

Flt3(h) = target: T5, Flt3(h) (Homo sapiens, UniProt P36888); assay: kinase profile, radiometric assay, Flt3; format: biochemical
T5 construct: purchased Eurofins, Dundee, Scotland
T5 sequence (P36888 27-993): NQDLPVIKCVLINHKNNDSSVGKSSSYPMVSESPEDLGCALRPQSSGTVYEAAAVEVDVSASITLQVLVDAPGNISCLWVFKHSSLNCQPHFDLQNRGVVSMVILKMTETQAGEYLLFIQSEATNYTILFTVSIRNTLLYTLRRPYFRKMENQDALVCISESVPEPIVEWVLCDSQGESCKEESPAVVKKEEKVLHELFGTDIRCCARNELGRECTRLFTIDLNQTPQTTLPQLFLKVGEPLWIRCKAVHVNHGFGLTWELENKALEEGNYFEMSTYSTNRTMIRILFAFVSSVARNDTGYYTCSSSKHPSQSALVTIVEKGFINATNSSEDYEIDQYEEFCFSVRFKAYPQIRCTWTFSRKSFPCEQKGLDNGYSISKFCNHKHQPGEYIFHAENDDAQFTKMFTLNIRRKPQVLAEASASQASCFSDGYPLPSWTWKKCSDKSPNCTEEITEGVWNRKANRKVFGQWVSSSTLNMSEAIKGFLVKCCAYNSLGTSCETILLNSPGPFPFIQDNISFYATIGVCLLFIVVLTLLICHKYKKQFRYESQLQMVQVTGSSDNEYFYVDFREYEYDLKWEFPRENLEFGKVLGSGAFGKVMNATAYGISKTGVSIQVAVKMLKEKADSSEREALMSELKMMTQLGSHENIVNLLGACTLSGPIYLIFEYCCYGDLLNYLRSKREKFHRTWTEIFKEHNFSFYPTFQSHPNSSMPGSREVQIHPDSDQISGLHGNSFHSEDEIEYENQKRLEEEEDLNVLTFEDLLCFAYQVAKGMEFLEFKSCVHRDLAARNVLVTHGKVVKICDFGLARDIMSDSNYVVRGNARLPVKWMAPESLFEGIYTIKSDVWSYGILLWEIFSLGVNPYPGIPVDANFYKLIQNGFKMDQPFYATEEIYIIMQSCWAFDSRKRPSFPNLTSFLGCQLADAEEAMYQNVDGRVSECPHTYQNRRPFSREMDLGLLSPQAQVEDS
Experimental: as §1, §2

Fms(h) = target: T6, Fms(h) (Homo sapiens, UniProt P07333); assay: kinase profile, radiometric assay, Fms; format: biochemical
T6 construct: purchased Eurofins, Dundee, Scotland
Experimental: as §1, §2

JAK2(h) = target: T7, JAK2(h) (Homo sapiens, UniProt O60674); assay: kinase profile, radiometric assay, JAK2; format: biochemical
T7 construct: purchased Eurofins, Dundee, Scotland
Experimental: as §1, §2

KDR(h) = target: T8, KDR(h) (Homo sapiens, UniProt P35968); assay: kinase profile, radiometric assay, KDR; format: biochemical
T8 construct: purchased Eurofins, Dundee, Scotland
Experimental: as §1, §2

MEK1(h) = target: T9, MEK1(h) (Homo sapiens, UniProt Q02750); assay: kinase profile, radiometric assay, MEK1; format: biochemical
T9 construct: purchased Eurofins, Dundee, Scotland
Experimental: as §1, §2

[1] = test system: PI3 Kinase (p110β/p85α)(h); assay: kinase profile, non-radiometric HTRF assay, PI3 kinases; format: biochemical, human; conditions: at 1 μM
[2] = test system: SK-MEL-2/Luc-MDM2 cells (MDM2-Luc exon-skipping reporter); assay: cell-based MDM2-Luc exon-skipping reporter assay; conditions: for luciferase response (Luc fold) in the MDM2-Luc reporter assay: compared with less potent CLK inhibitors of the series; for MDM2/Luc: luciferase activation vs DMSO control, average of three experiments
[3] = first of three lines printed with this name (r24)
[4] = second of three lines with this name
[5] = third of three lines printed with this name (r26)

T6 sequence (P07333 20-972): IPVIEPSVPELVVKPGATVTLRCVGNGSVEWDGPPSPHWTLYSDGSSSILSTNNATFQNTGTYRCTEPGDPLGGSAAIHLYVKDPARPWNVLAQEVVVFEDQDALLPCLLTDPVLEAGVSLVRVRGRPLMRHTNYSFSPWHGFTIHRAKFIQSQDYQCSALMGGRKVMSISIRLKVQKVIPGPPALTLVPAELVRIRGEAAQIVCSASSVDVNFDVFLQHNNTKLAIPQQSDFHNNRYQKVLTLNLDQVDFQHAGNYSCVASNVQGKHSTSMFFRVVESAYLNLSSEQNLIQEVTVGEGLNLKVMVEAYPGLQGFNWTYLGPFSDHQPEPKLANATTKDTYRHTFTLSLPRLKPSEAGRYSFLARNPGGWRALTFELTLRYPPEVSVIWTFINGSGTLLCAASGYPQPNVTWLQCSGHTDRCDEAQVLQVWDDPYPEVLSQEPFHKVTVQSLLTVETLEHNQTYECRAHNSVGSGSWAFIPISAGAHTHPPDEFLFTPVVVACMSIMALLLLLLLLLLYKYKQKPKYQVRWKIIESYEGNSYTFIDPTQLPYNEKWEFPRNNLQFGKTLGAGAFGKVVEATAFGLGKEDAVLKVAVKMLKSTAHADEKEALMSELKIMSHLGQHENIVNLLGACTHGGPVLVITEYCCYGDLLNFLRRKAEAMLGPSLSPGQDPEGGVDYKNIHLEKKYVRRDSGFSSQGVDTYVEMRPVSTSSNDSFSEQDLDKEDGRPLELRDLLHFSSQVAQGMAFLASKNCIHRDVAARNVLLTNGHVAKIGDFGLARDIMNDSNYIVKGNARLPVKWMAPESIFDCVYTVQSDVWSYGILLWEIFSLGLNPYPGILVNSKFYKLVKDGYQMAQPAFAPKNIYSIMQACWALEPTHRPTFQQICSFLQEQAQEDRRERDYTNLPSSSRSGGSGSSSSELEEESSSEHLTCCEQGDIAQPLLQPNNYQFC
T2 sequence (P49760 whole entry): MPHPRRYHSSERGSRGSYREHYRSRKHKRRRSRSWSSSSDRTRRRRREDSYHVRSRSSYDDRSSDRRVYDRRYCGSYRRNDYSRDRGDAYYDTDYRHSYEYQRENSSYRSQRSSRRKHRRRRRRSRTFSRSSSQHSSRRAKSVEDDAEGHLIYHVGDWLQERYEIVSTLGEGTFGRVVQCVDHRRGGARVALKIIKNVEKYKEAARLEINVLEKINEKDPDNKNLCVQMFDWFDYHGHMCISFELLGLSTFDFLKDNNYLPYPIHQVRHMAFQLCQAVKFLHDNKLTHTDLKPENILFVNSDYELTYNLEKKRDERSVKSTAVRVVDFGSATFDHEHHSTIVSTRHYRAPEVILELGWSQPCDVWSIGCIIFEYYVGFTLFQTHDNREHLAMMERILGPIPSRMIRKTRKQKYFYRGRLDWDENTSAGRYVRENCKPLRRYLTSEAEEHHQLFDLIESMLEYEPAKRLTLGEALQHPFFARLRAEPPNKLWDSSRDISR
T4 sequence (P00533 25-1210): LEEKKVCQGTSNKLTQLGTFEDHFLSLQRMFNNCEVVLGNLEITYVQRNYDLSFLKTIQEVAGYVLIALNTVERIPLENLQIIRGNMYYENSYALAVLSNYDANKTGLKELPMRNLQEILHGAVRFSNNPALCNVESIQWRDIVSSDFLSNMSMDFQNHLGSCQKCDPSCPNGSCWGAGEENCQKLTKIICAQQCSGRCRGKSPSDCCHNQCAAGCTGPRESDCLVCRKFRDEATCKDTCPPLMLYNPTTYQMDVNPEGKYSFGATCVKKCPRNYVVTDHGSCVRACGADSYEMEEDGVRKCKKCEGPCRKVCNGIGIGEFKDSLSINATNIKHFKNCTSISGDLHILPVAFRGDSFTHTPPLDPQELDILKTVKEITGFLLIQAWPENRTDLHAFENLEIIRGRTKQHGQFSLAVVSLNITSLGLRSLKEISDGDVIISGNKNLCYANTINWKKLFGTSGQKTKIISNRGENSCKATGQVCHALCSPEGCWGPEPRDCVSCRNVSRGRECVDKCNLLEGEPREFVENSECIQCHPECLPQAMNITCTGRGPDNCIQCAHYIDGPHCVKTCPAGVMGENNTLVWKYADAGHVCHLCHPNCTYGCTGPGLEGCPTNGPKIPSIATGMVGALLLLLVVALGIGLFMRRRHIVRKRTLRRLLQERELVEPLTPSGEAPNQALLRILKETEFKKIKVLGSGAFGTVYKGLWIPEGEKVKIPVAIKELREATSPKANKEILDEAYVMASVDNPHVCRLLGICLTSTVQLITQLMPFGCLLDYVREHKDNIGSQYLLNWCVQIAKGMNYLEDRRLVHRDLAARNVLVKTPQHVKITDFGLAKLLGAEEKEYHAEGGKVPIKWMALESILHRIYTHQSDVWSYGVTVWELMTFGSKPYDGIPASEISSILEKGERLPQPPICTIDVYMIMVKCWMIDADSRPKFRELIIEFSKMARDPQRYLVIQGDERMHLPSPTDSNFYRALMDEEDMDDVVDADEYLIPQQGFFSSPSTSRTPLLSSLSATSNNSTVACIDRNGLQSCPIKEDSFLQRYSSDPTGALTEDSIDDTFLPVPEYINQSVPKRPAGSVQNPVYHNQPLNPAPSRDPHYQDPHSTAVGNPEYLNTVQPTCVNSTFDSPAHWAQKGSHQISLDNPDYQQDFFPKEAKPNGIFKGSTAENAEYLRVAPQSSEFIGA
T7 sequence (O60674 whole entry): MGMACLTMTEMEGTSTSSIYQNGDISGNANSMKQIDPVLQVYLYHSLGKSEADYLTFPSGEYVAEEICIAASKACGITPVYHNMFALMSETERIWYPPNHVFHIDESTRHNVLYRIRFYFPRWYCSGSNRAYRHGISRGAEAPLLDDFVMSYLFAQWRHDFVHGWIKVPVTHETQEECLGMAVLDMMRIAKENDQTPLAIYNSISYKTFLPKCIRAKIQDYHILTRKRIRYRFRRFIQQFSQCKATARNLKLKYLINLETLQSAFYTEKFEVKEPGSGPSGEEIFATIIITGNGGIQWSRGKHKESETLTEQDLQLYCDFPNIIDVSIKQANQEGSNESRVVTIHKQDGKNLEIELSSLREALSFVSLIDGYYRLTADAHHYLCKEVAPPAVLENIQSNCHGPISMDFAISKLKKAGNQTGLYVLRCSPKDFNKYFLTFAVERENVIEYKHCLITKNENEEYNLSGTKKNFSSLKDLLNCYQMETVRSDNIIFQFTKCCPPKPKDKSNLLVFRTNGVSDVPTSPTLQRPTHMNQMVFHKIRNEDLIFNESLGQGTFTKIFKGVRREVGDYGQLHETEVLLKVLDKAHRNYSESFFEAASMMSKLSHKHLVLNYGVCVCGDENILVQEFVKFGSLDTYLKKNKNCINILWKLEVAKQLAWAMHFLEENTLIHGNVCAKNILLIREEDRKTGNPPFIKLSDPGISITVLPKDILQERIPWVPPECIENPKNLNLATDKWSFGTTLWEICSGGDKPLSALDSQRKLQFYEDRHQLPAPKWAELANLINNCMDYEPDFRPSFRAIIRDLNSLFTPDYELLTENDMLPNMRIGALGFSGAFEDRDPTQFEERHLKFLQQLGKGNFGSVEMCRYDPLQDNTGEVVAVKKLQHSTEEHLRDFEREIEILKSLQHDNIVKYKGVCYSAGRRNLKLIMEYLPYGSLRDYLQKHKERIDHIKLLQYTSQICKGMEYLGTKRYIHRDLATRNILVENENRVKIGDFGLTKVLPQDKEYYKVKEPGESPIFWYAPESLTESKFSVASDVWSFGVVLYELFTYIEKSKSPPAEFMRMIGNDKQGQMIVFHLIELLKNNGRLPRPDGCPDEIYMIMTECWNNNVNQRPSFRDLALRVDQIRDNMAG
T1 sequence (P49759 whole entry): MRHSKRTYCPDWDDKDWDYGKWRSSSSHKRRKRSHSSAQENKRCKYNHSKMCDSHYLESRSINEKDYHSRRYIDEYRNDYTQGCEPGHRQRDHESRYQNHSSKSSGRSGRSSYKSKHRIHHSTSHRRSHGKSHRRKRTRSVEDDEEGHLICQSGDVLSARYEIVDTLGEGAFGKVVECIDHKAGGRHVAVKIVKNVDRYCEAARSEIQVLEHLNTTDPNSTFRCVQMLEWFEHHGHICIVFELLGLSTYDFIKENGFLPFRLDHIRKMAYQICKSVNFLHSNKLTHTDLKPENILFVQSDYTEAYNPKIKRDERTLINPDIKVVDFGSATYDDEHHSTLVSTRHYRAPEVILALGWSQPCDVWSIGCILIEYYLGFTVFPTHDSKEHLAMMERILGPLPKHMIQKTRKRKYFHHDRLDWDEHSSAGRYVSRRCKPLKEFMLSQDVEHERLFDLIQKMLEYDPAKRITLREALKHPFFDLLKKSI
T9 sequence (Q02750 whole entry): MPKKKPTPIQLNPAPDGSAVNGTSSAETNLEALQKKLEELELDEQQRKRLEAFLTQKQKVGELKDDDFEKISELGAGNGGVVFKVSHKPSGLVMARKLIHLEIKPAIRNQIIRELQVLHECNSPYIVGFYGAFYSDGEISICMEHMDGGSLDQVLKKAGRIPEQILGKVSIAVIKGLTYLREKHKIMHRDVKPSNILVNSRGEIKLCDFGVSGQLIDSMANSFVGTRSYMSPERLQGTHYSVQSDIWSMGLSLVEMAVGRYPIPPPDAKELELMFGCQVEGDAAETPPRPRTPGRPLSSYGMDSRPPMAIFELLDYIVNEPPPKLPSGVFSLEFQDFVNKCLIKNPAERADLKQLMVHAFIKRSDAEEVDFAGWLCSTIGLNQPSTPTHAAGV

| SMILES | IC50 (CLK1(h)) | IC50 (CLK2(h)) | inhibition at 1 µM (ALK(h)) | inhibition at 1 µM (EGFR(h)) | inhibition at 1 µM (Flt3(h)) | inhibition at 1 µM (Fms(h)) | inhibition at 1 µM (JAK2(h)) | inhibition at 1 µM (KDR(h)) | inhibition at 1 µM (MEK1(h)) | % Inhibition PI3 Kinase (p110β/p85α)(h) [1, 3] | % Inhibition PI3 Kinase (p110β/p85α)(h) [1, 4] | % Inhibition PI3 Kinase (p110β/p85α)(h) [1, 5] | luciferase response (Luc fold) in the MDM2-Luc reporter assay [2] | MDM2/Luc [2] | MDM2-Luc activity ([2]; result in words, no concentration stated) |
| --- | --- | --- | --- | --- | --- | --- | --- | --- | --- | --- | --- | --- | --- | --- | --- |
| CC(C)n1cnc2c(Nc3cccc(Cl)c3)nc(N[C@@H]3CCCC[C@@H]3N)nc21 [Compound 9, N^2-((1R,2S)-2-Aminocyclohexyl)-N^6-(3-Chlorophenyl)-9-Isopropyl-9H-Purine-2,6-Diamine] | 38 nM | 11 nM | -2% | 3% | 90% | -16% | 2% | -6% | 8% | 4% | 3% | 5% | stronger luciferase response | Active | – |
| CC(C)n1cnc2c(Nc3cc(N)cc(Cl)c3)nc(NC3CCCCC3N)nc21 (racemic) [Compound 14, Racemic N^6-Cis-(3-Amino-5-Chlorophenyl)-N^2-(2-Aminocyclohexyl)-9-Isopropyl-9H-Purine-2,6-Diamine] | 18 nM | 16 nM | 10% | -1% | 93% | 9% | 8% | 4% | 6% | 4% | 0% | 1% | stronger luciferase response | Active | strong MDM2-Luc activity |
| CC(C)n1cnc2c(Nc3cccc(Cl)c3)nc(N[C@H]3CCCC[C@@H]3N)nc21 [Compound 8, N^2-((1S,2S)-2-Aminocyclohexyl)-V-(3-Chlorophenyl)-9-Isopropyl-9H-Purine-2,6-Diamine] | 78 nM | 16 nM | 7% | -6% | 19% | -1% | -6% | 16% | 10% | 5% | 2% | 2% | – | Active | – |
